Results as given in patent US8927571B2, “Pyrido[4,3-B]indoles and methods of use” (Medivation Technologies, Inc., priority 2009, dated 2015).

Target: T1, human recombinant serotonin (5-Hydroxytryptamine) 5-HT2A receptor (Homo sapiens, UniProt P28223)
T1 construct: expressed in transfected cells; host or cells: Chinese hamster ovary (CHO-K1) cells
Assay: Serotonin 5-HT2A radioligand binding assay ([3H]Ketanserin)
Conditions: 0.5 nM [3H]Ketanserin, read-out: Percent Inhibition of ligand binding, Serotonin (1 μM) 5-HT2A
Experimental: Compounds of the invention were incubated with 0.5 nM [^3H]Ketanserin for 60 min at 25° C. Non-specific binding was estimated in the presence of 1 μM Mianserin. Receptor proteins were filtered and washed, the filters were then counted to determine [^3H]Ketanserin specifically bound. Compounds were screened at 1 μM or lower, using 1% DMSO as vehicle. Biochemical assay results are presented as the percent inhibition of specific binding in Table 4.

T1 sequence (P28223 whole entry): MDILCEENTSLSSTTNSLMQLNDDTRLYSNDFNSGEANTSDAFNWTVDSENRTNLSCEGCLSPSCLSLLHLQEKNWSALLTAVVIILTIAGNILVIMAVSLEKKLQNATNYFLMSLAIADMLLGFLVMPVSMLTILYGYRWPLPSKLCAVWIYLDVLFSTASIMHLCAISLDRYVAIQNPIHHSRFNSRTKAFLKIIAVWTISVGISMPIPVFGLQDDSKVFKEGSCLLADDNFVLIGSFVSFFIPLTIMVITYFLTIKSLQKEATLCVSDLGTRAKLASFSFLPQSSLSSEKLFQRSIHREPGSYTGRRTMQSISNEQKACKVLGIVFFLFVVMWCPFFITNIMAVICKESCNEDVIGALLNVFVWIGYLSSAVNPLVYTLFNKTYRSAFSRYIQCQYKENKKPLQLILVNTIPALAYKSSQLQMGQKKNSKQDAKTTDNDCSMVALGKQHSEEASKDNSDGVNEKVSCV

`Cc1ccc2c(c1)c1c(n2CC(O)(c2ccccc2)c2ccc(F)cc2)CCN(C)C1` (stereo not shown) [Compound 1, 2-(2,8-dimethyl-3,4-dihydro-1H-pyrido[4,3-b]indol-5(2H)-yl)-1-(4-fluorophenyl)-1-phenylethanol] showed an inhibition at 1 µM of 97%.
